Measured values from patent US9980943B2, “Methods of treating muscular dystrophy” (BOARD OF REGENTS OF THE NEVADA SYSTEM OF HIGHER EDUCATION, …, priority 2013, dated 2018).

How the values were obtained:
Format in all cases: cell-based, mouse
[1] = test system: α7 integrin (LacZ reporter in α7βgal+/− myoblasts); assay: Myoblast α7+/LacZ integrin FDG assay (Burkin assay in myoblasts, 96-well); conditions: α7+/LacZ myoblasts, 96-well
[2] = test system: β-galactosidase in CMV-LacZ C2C12 myotubes; assay: CMV-LacZ secondary screen in C2C12 myotubes (β-Gal stabilizing assay); conditions: C2C12 CMV-LacZ myotubes, fold relative to DMSO
Procedure, shortened: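 CMV-LacZ C2C12 line (clonal, FDG-screened); myoblasts/myotubes dosed 0.5–40 μM (0.5, 1, 5, 10, 20, 40 μM); n=2 per point; β-gal stabilization read-out.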

[3] = test system: α7 integrin (LacZ reporter in α7+/LacZ myotubes); assay: Myotube α7 integrin FDG assay (Burkin assay in myotubes, 96-well); conditions: myotubes
[4] = test system: β-galactosidase in CMV-LacZ C2C12 myoblasts; assay: CMV-LacZ secondary screen in C2C12 myoblasts (β-Gal stabilizing assay); conditions: CMV-LacZ C2C12 myoblasts
Procedure, shortened: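 A secondary screen identifies compounds that stabilize β-gal independently of the native promoter, using CMV-LacZ C2C12 cells. Curves span 0.5–40 μM at six levels, in duplicate.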

Structure (SMILES) | Burkin Assay in Myoblasts, signal relative to DMSO ([1]; 0.5 uM) | Burkin Assay in Myoblasts, signal relative to DMSO ([1]; 1 uM) | Burkin Assay in Myoblasts, signal relative to DMSO ([1]; 5 uM) | Burkin Assay in Myoblasts, signal relative to DMSO ([1]; 10 uM) | Burkin Assay in Myoblasts, signal relative to DMSO ([1]; 20 uM) | Burkin Assay in Myoblasts, signal relative to DMSO ([1]; 40 uM) | CMV-LACZ in Myotubes, signal relative to DMSO ([2]; 0.5 uM) | CMV-LACZ in Myotubes, signal relative to DMSO ([2]; 1 uM) | CMV-LACZ in Myotubes, signal relative to DMSO ([2]; 5 uM) | CMV-LACZ in Myotubes, signal relative to DMSO ([2]; 10 uM) | CMV-LACZ in Myotubes, signal relative to DMSO ([2]; 20 uM) | CMV-LACZ in Myotubes, signal relative to DMSO ([2]; 40 uM) | Burkin Assay in Myotubes, α7 integrin LacZ reporter signal relative to DMSO ([3]; 0.5 uM) | Burkin Assay in Myotubes, α7 integrin LacZ reporter signal relative to DMSO ([3]; 1 uM) | Burkin Assay in Myotubes, α7 integrin LacZ reporter signal relative to DMSO ([3]; 5 uM) | Burkin Assay in Myotubes, α7 integrin LacZ reporter signal relative to DMSO ([3]; 10 uM) | Burkin Assay in Myotubes, α7 integrin LacZ reporter signal relative to DMSO ([3]; 20 uM) | Burkin Assay in Myotubes, α7 integrin LacZ reporter signal relative to DMSO ([3]; 40 uM) | CMV-LACZ in Myoblasts (β-galactosidase activity relative to DMSO) ([4]; 0.5 uM) | CMV-LACZ in Myoblasts (β-galactosidase activity relative to DMSO) ([4]; 1 uM) | further results
CC(C)c1ccc(NC(=O)CN2C(=O)c3ccccc3S2(=O)=O)cc1 [MLS001229477-01] | 0.8703 | 0.8296 | 1.367 | 0.9454 | 0.9634 | 0.9019 | 1.0126 | 1.1095 | 0.9250 | 0.9587 | 0.9622 | 0.9611 | 0.8015 | 0.9368 | 0.9702 | 0.9015 | 0.8376 | 0.8339 | 1.0283 | 1.1345 | CMV-LACZ in Myoblasts (β-galactosidase activity relative to DMSO) ([4]; 5 uM): 1.1078; CMV-LACZ in Myoblasts (β-galactosidase activity relative to DMSO) ([4]; 10 uM): 1.1311; CMV-LACZ in Myoblasts (β-galactosidase activity relative to DMSO) ([4]; 20 uM): 1.0674; CMV-LACZ in Myoblasts (β-galactosidase activity relative to DMSO) ([4]; 40 uM): 0.8800
CCc1c(C)sc(NC(=O)c2ccco2)c1C#N [MLS001240181-01] | 1.082 | 1.081 | 1.4585 | 1.074 | 1.153 | 1.198 | 0.9519 | 1.0511 | 1.0895 | 0.9955 | 1.0976 | 1.1376 | 1.174 | 1.214 | 1.643 | 0.9683 | 0.8871 | 0.7905 | 0.9550 | 1.0441 | CMV-LACZ in Myoblasts (β-galactosidase activity relative to DMSO) ([4]; 5 uM): 0.8408; CMV-LACZ in Myoblasts (β-galactosidase activity relative to DMSO) ([4]; 10 uM): 1.1645; CMV-LACZ in Myoblasts (β-galactosidase activity relative to DMSO) ([4]; 20 uM): 1.0367; CMV-LACZ in Myoblasts (β-galactosidase activity relative to DMSO) ([4]; 40 uM): 0.8907
Cc1nnc(-c2ccc(N3CCOCC3)c([N+](=O)[O-])c2)o1 [MLS001359861-01] | 0.9353 | 0.9376 | 0.9484 | 0.9324 | 0.8725 | 0.9113 | 0.8978 | 0.9533 | 0.9547 | 1.1230 | 0.9976 | 0.9412 | 1.095 | 1.184 | 0.9088 | 0.876 | 1.0337 | 0.804 | 0.9444 | 0.9184 | CMV-LACZ in Myoblasts (β-galactosidase activity relative to DMSO) ([4]; 5 uM): 0.9009; CMV-LACZ in Myoblasts (β-galactosidase activity relative to DMSO) ([4]; 10 uM): 0.8064; CMV-LACZ in Myoblasts (β-galactosidase activity relative to DMSO) ([4]; 20 uM): 0.9074; CMV-LACZ in Myoblasts (β-galactosidase activity relative to DMSO) ([4]; 40 uM): 1.0330
